{"source": "patent US10251937B2", "about": "“Retro-inverso analogs of spadin display increased antidepressant effects” (MEDINCELL, priority 2014, dated 2019)", "key": {"[1]": {"biological_target": "human-IKS current (Homo sapiens, UniProt P51787)", "experiment": "Cardiac IKs current, whole cell patch clamp in HEK-IKS cell line", "experimental": "The human-TREK-1/HEK293 cell line (h-TREK-1/HEK) (Moha ou Maati, H. et al. (2011). PloS one, 6 (10), e25602) and HEK-IKS cell line (Ducroq, J. et al, (2010) Br J Pharmacol, 159(1):93-101) were grown in the presence of 0.5 mg/mL G418 in Dulbecco's modified Eagle's medium supplemented with 10% (v/v) heat inactivated fetal bovine serum containing 1% (v/v) penicillin/streptomycin in an atmosphere of 95% air/5% CO2.\nAll electrophysiological recordings were performed in whole cell configuration of the patch clamp technique. Each current was evaluated by using a RK 400 patch clamp amplifier (Axon Instrument, USA), low-pass filtered at 3 kHz and digitized at 10 kHz using a 12-bit analog-to-digital converter digidata (1322 series, Axon Instrument, USA). All current amplitudes are expressed in current densities. Results were expressed as mean±standard error of the mean (SEM). […] The bath solution contained 150 mM NaCl, 5 mM KCl, 3 mM MgCl2, 1 mM CaCl2 and 10 mM HEPES adjusted to pH 7.4 with NaOH. The pipette solution contained 155 mM KCl, 3 mM MgCl2, 5 mM EGTA and 10 mM HEPES adjusted to pH 7.2 with KOH. […] All experiments were performed at room temperature (21-22° c.). Stimulation protocols and data acquisition were carried out using a microcomputer (Dell Pentium) with a commercial software and hardware (pClamp 8.2). Currents were recorded by voltage clamp steps to membrane potentials of −100 to +60 mV in 20 mV steps applied from a holding potential of −80 mV. Duration of depolarization pulses were 0.825 ms, and the pulse cycling rate was 5 sec. […] Cells were continuously superfused with a microperfusion system. […] IKS currents were activated by voltage clamp steps of membrane potentials from −100 to +100 mV in 20 mV steps applied from a holding potential of −80 mV. Tail currents were generated by repolarization to −40 mV. Duration of both depolarization and repolarization pulses were 2.4 s, and the pulse cycling rate was 10 s. […] The amplitudes of IKS and IKR currents were calculated at both the end of the first pulse and the peak of the tail pulse."}, "[2]": {"tested_on": "C57Bl/6J mice", "experiment": "Seizure induced by kainate", "format": "in vivo", "settings": "for effect against epilepsy seizure triggered by kainate: kainate 25 mg/Kg", "protocol": "Kainate solutions were prepared in a solution of 140 mM NaCl (saline solution). […] Mice (n=10 per group) were monitored during 2 h for onset and extent of seizures. Six levels of seizure severity were defined as follows: 1—immobility, 2—head/neck movements, 3—clonic unilateral activity, 4—clonic bilateral activity, 5—generalized convulsions, and 6—death. Seizure severity was blindly scored (Moha ou Maati, H. et al. A human TREK-1/HEK cell line: a highly efficient screening tool for drug development in neurological diseases. PLoS One 6, e25602, (2011)). The seizure index was calculated by averaging the points for seizure activity in each group (n=10 per treatment)."}, "[3]": {"tested_on": "C57Bl/6J mice", "experiment": "Novelty Suppressed Feeding (NSF) test", "format": "in vivo", "settings": "10 μg/kg i.v. daily for 4 days, test on day 5", "protocol": "(§1) Stock solutions were prepared of 2 mg/mL (10^-3M) in distilled water, and before injection spadin solution was diluted in NaCl 0.9% to obtain the different concentrations used for treatments. Corticosterone (Sigma-Aldrich, France) was dissolved in drinking water at the concentration of 3.5 mg/L in the presence of 4.5 g/L of beta-cyclodextrin. […] Fluoxetine (Sigma-Aldrich, France) was dissolved in drinking water at the dose of 80 mg/L and administered during 21 days. For i.p. administration, fluoxetine (TEVA Santé, France) was dissolved in NaCl 0.9% at a concentration of 0.75 mg/mL. The amount injected was 3 mg/kg. Spadin and analogues were administered by i.v. injection. For acute treatment, drugs were administered in a single 100 μL bolus 30 min prior to the beginning of the behavioral tests. For subchronic treatment drugs were injected during 4 consecutive days and behavioral tests were performed on day 5, without additional injection.\nThe NSF paradigm is a two day test protocol. Day one, mice were deprived from food. Day two mice were placed in a highly brightly lit area, in a plastic box (45×45×20 cm), with a floor covered with wooden bedding. The test was carried out during a 10 min period; during this time the latency to eat was measured. During the test a single pellet of food was placed in the center of the box, on a white platform."}, "[4]": {"biological_target": "hERG (human Ether a go-go Related Gene) current IKr (Homo sapiens, UniProt Q12809)", "sequence (Q12809 whole entry)": "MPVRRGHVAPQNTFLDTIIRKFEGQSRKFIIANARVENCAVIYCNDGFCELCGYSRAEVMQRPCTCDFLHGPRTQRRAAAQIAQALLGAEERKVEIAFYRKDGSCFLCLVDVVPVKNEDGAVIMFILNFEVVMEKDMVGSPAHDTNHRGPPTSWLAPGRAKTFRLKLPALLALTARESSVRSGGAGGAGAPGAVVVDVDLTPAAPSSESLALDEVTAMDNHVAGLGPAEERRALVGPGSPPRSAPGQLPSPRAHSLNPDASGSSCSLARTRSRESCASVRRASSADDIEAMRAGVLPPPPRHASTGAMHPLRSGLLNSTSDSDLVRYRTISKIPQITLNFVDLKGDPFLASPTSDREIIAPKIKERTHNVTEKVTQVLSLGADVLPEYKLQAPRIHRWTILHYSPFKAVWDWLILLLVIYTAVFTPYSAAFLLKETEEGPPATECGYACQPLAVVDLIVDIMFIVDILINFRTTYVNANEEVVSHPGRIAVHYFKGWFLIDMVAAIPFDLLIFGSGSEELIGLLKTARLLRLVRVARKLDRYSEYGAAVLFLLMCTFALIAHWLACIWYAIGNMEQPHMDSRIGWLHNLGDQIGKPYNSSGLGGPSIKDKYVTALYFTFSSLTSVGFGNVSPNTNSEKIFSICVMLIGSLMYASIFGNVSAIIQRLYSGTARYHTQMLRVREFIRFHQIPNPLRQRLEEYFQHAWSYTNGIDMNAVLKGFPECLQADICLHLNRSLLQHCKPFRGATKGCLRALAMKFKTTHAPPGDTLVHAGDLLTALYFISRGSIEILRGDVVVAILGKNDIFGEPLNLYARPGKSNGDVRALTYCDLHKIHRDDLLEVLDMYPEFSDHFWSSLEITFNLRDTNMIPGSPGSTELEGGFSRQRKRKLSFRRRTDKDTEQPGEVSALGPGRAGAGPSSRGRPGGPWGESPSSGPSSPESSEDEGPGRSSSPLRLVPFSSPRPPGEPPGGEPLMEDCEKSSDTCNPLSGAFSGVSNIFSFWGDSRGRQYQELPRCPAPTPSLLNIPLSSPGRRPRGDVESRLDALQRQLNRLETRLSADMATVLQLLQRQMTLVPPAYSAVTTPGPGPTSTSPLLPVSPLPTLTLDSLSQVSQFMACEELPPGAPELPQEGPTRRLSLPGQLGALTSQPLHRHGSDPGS", "experiment": "Cardiac IKr (hERG) current, whole cell patch clamp in transfected HEK cells", "experimental": "HEK-293 native cells were grown in serum in an atmosphere of 95% air/5% CO2 in Dulbecco's modified Eagle's medium supplemented with 10% (v/v) heat inactivated fetal bovine containing 1% (v/v) of penicillin/streptomycin and Glutamax×1. Cells were plated at a density of 20000 cells/35 mm dish and after 24 h cells were transfected using the JetPEI® method (Polyplus, France) with 25 ng/35 mm dish of p-IRES-HERG channel vector. Patch clamp experiments were carried out 48 h after transfection\nAll electrophysiological recordings were performed in whole cell configuration of the patch clamp technique. Each current was evaluated by using a RK 400 patch clamp amplifier (Axon Instrument, USA), low-pass filtered at 3 kHz and digitized at 10 kHz using a 12-bit analog-to-digital converter digidata (1322 series, Axon Instrument, USA). All current amplitudes are expressed in current densities. Results were expressed as mean±standard error of the mean (SEM). […] The bath solution contained 150 mM NaCl, 5 mM KCl, 3 mM MgCl2, 1 mM CaCl2 and 10 mM HEPES adjusted to pH 7.4 with NaOH. The pipette solution contained 155 mM KCl, 3 mM MgCl2, 5 mM EGTA and 10 mM HEPES adjusted to pH 7.2 with KOH. […] All experiments were performed at room temperature (21-22° c.). Stimulation protocols and data acquisition were carried out using a microcomputer (Dell Pentium) with a commercial software and hardware (pClamp 8.2). Currents were recorded by voltage clamp steps to membrane potentials of −100 to +60 mV in 20 mV steps applied from a holding potential of −80 mV. Duration of depolarization pulses were 0.825 ms, and the pulse cycling rate was 5 sec. […] Cells were continuously superfused with a microperfusion system. […] Tail currents were generated by repolarization to −40 mV. […] IKR currents were activated by voltage clamp steps of membrane potentials from −100 to +100 mV in 10 mV steps applied from a holding potential of +80 mV and tail currents were generated by a repolarization to +40 mV. […] The amplitudes of IKS and IKR currents were calculated at both the end of the first pulse and the peak of the tail pulse."}, "[5]": {"tested_on": "C57Bl/6J mice", "experiment": "Tail-immersion (tail flick) test, thermal pain", "format": "in vivo", "settings": "10 μg/kg i.v., 30 min before test, n=10", "protocol": "Mice were i.v. injected with 10 μg/kg of spadin in a bolus of 100 μL or 100 μL of a saline solution (0.9% NaCl) 30 min before the beginning of the test. The tail was immersed in a water bath at 48° C. until withdrawal was observed (cut-off time: 30 s). Two separate withdrawal latency time determinations were averaged."}, "[6]": {"tested_on": "C57Bl/6J mice", "experiment": "Forced Swimming Test (FST) in naive mice", "format": "in vivo", "settings": "for immobility time, FST, duration of action: 10 naive animals", "protocol": "Naïve male C57Bl/6J mice from 7 to 9 weeks old were used in all experiments (Janvier laboratory). Mice were housed 10 animals per cage under a 12-h light/12-h dark cycle (light on at 8:00 am), in a ventilated room at a temperature of 22±1° C. Animals had free access to water and food (A03; SAFE, Augy, France). All experiments were conducted according to policies on the care and use of laboratory animals of the Society for Neuroscience, and also with respect to national laws on animal use. The local Ethics Committee (CIEPAL) approved the experiments.\nas §1\nThe animals were individually placed in a non-escapable cylinder (height 30 cm, diameter 15 cm) filled with 15 cm-water at 22±1° C. The trial was conducted for 6 min. The total period of immobility was manually measured during the last 4 min of the test. A mouse was considered immobile when it remained floating with only slight movements to keep its head above water."}, "[7]": {"settings": "0 mV, in the presence of 10 μM, n=5"}}, "note": "Square brackets hold non-standard residues; d marks the D form. Peptide text beside a SMILES is read from it."}
{"smiles": "CC[C@@H](C)[C@@H](NC(=O)CNC(=O)[C@H](NC(=O)[C@@H](CO)NC(=O)[C@@H](Cc1c[nH]c2ccccc12)NC(=O)CNC(=O)[C@@H](CC(C)C)NC(=O)[C@@H](CCCNC(=N)N)NC(C)=O)C(C)C)C(=O)N1CCC[C@@H]1C(=O)NCC(=O)N[C@H](CO)C(=O)N[C@H](Cc1c[nH]c2ccccc12)C(=O)N[C@H](CCCNC(=N)N)C(=O)N1CCC[C@@H]1C(=O)N[C@H](CC(C)C)C(=O)N1CCC[C@@H]1C(=O)N[C@H](C)C(N)=O", "note": "[Analog 3, Ac-rlGwsvGipGswrplpa-NH2] (Ac-[dR][dL]G[dW][dS][dV]G[dI][dP]G[dS][dW][dR][dP][dL][dP][dA]-NH2)", "values": [{"measurement": "IKS tail current density", "setting": "[1]; [7]", "value": "8.33±2.06", "unit": "pA/pF"}, {"measurement": "IKs current density at the end of pulses", "setting": "[1]; [7]", "value": "17.58±4.03", "unit": "pA/pF"}, {"measurement": "effect on currents generated by IKS channels expressed in HEK cells", "setting": "[1]; 10 μM", "value": "did not modify currents"}, {"measurement": "effect against epilepsy seizure triggered by kainate", "setting": "[2]; 1 μg/Kg i.v.", "value": "no protective effect"}, {"measurement": "effect against epilepsy seizure triggered by kainate", "setting": "[2]; 10 μg/Kg i.v.", "value": "important protective effect"}, {"measurement": "mice among 10 that reached the two less severe stages of epilepsy seizures (immobility, head or neck movements)", "setting": "[2]; 10 μg/Kg i.v., kainate 25 mg/Kg i.p.", "value": "two"}, {"measurement": "latency to feed, NSF", "setting": "[3]", "value": "143.88 ± 23.42", "unit": "s"}, {"measurement": "IKr current density at end of first pulse", "setting": "[4]; [7]", "value": "224.48±35.94", "unit": "pA/pF"}, {"measurement": "IKr tail current density", "setting": "[4]; [7]", "value": "212.99±38.38", "unit": "pA/pF"}, {"measurement": "effect on currents generated by IKr channels expressed in HEK cells", "setting": "[4]; 10 μM", "value": "did not modify currents"}, {"measurement": "tail withdrawal time", "setting": "[5]", "value": "11.32 ± 1.04", "unit": "s"}, {"measurement": "immobility time, FST, acute treatment", "setting": "[6]; 10 μg/kg acute i.v., measured 30 minutes after injection, n=10", "value": "135.10 ± 8.11", "unit": "s"}, {"measurement": "immobility time, FST, subchronic treatment", "setting": "[6]; 10 μg/kg i.v. once a day for 4 days, test on day 5", "value": "114.9 ± 9.82", "unit": "s"}, {"measurement": "immobility time, FST, duration of action", "setting": "[6]; 1 hour after i.v. injection", "value": "123.4 ± 7.0", "unit": "s"}, {"measurement": "immobility time, FST, duration of action", "setting": "[6]; 16 hours after i.v. injection", "value": "129.6 ± 12.7", "unit": "s"}, {"measurement": "duration of activity in vivo compared to Analog 8", "setting": "[6]; FST (FIG. 4B)", "value": "active for longer duration in vivo"}]}
